According to US20040019118A1, “NMDA receptor antagonists and their use in inhibiting abnormal hyperphosphorylation of microtubule associated protein tau” (priority 2002, published 2004):
Entries after “also recorded” stand apart in the source; their conditions may differ. Read-outs that look alike come from different tables or passages of the source.

Legend:
PP-2A [1] = biological target: T1, PP-2A (Rattus norvegicus, UniProt P63331); assay: PP-2A activity in extracts of treated hippocampal slice cultures; format: cell-based
T1 construct: from tissue; host or cells: organotypic culture of adult rat hippocampal slices; 16,000xg extract
Method: (§1) Organotypic cultures of rat hippocampal slices were prepared from 20-30 day old Wistar rats and cultured with the interface method as described previously (Stoppini, et al. 1991; Bahr, et al. 1995; Zhongrin, et al. 2000). The rats were anesthetized with ketamine (100 mg/kg body weight) and decapitated and the hippocampi were dissected out and sliced into 400 um coronal sections by a McIllwain tissue chopper. Select slices with uninterrupted bright transparent neuronal layers were plated, 1-3 slices/filter, onto Millicell CM filters (Millipore, Bedford, Mass.). For the first 2 days in vitro (DIV) cultures were maintained in 25% horse serum, 50% Basal Media-Eagle (BEM), 25% Eagle's Balanced Salt Solution (EBSS), 25 mM HEPES, 1 mM glutamine, 28 mM glucose, pH 7.2, at 32° C. in a 5% CO2 humidified atmosphere. The slice cultures were then switched to 25% horse serum, 50% BEM and EBSS modified so that the potassium concentration was 2.66 mM, for another 5 DIV. After 7 DIV, the cultures were maintained in physiological potassium containing 5% horse serum medium at 35° C. for at least 20 days before any treatment was applied. When the slices were treated, the reagents were applied into the culture medium. At different time points, the slices collected with a brush were washed twice in homogenizing buffer (50 mM HEPES, pH 7.0, 10 mM β-merceptoethanol [BME], 1 mM EDTA, 1 mM EGTA, 0.1 mM phenylmethyl sulfonyl fluoride [PMSF], 2.0 mM benzamidine and 2.0 μg/ml each of aprotinin, leupeptin and pepstatin) and homogenized at 4° C. using a Teflon-glass homogenizer. The homogenate was then divided into two parts, one was centrifuged at 16000×g for 15 min and the supernatant was used to assay activities of PP-2A and PP-1. The rest of the homogenate was diluted 1:1 with a phosphatase inhibitor cocktail (20 mM β-glycerophosphate, 2 mM Na3VO4 and 100 mM NaF, pH 7.0) and either used for Western blots or centrifuged at 16000×g for 15 min and the resulting supernatant used to determine the kinase activities.
Activities of PP-2A and PP-1 were assayed towards [^32P] phosphorylase-a as a substrate as described previously (Gong, et al. 1994). The phosphatase activity was assayed in 20 μl of reaction mixture containing 50 mM Tris, pH 7.0, 10 mM BME, 0.1 mM EDTA, 7.5 mM caffeine, 7.5 ng/μl [^32P]phosphorylase-a and 0.06 mg/ml slice culture extract. The reaction was started by adding ^32P-phosphorylase-a. After incubation for 30 min at 30° C., 7 μl of the reaction mixture was spotted on to 31 ETCHR chromatography paper which had been prespotted with 10 μl stop solution (4 mM ATP+20% TCA). Then the ^32p released was separated from the protein-incorporated ^32P by paper chromatography in 5% TCA and 0.2 M NaCl, paper strips dried, cut and counted by Cerenkov radiation. A PP-1 specific inhibitor, inhibitor-1 (Hitken, et al. 1982) was included in the assays for PP-2A activity. PP-1 activity was calculated by subtracting the PP-2A activity from the total phosphorylase-a phosphatase activity (PP-1/PP-2A) assayed in the absence of inhibitor-1.

MAPK = MAPK activity in extracts of treated hippocampal slice cultures; format: cell-based, rat; details: after 0.3 mM glutamate; 10 μM Memantine or 15 μM MK801
Method: as §1, with “The” for “Organotypic cultures of rat hippocampal slices were prepared from 20-30 day old Wistar rats and cultured with the interface method as described previously (Stoppini, et al. 1991; Bahr, et al. 1995; Zhongrin, et al. 2000). The”, “For the first 2 days in vitro (DIV) cultures were maintained in 25% horse serum, 50% Basal Media-Eagle (BEM), 25% Eagle's Balanced Salt Solution (EBSS), 25 mM HEPES, 1 mM glutamine, 28 mM glucose, pH 7.2, at 32° C. in a 5% CO2 humidified atmosphere. The slice cultures were then switched to 25% horse serum, 50% BEM and EBSS modified so that the potassium concentration was 2.66 mM, for another 5 DIV.” left out
Immobilized protein G (Pierce, Rockford, Ill.), 20 μl, was mixed in 50 mM Tris, pH 7.4, 150 mM NACl, 10 mM NaF, 1.0 mM Na3VO4, 2.0 mM EGTA, 1 mM PMSF, 5 μg/ml leupeptin, 5 μg/ml aprotinin, 2 μg/ml pepstatin, 25 μg/ml phosphoramidon. After incubation at 4° C. overnight, the mixture was centrifuged and the beads were washed three times. The beads were then resuspended in 50 mM Tris, pH 7.4, containing 10 mM MgCl2. MAPK substrate peptide (UBI, Lake Placid, N.Y.) was employed for the MAPK assay. […]

PP-1 [2] = details: 10 nM OA, 24 h; cited from earlier work
PP-2A [3] = biological target: T1, PP-2A; details: up to 5 μM OA, 3 h; cited from earlier work
PP-1 [4] = details: up to 5 μM OA, 3 h; cited from earlier work
PP-2A [5] = biological target: PP-2A (Homo sapiens, UniProt P67775); design: treatment of the SY5Y human neuroblastoma in culture with 10 nM OA for 24 h; host or cells: SY5Y human neuroblastoma cells (endogenous); details: 10 nM OA, 24 h; cited from earlier work
Sequence of PP-2A (Homo sapiens, UniProt P67775) (P67775 whole entry): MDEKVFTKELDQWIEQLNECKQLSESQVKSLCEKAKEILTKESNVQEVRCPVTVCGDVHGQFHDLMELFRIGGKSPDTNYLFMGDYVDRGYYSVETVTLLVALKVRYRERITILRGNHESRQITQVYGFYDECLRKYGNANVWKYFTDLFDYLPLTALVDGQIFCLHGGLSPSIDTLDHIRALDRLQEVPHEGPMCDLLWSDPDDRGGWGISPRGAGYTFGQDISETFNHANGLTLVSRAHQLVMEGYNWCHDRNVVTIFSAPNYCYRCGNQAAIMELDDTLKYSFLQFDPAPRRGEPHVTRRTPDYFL

T1 sequence (P63331 whole entry): as the sequence (P67775 whole entry) above, with V5L counted along it

Compound	restoration of OA-inhibited PP-2A activity (PP-2A [1]; 100 nM OA and 1, 10 or 30 μM Memantine, 3-48 h (FIG. 2a), p<0.02)	restoration of PP-2A activity (PP-2A [1]; 100 nM OA plus 10 μM Memantine 24 h, or OA 24 h, wash, then Memantine 24 h)	restoration of OA-inhibited PP-2A activity (PP-2A [1]; 100 nM OA, 10 μM Memantine, 24 h)	restoration of OA-inhibited PP-2A activity (PP-2A [1]; 5 μM compound)	additional effect on restoration of PP-2A activity (PP-2A [1]; Memantine 10 to 30 μM, or 24 h to 48 h)	concentration giving full effect on restoration of PP-2A activity (PP-2A [1]; OA-treated slices) [µM]	lowest concentration at which restoration of PP-2A activity was observed (PP-2A [1]; OA-treated slices) [µM]	effect on PP-2A activity (PP-2A [1]; after 0.3 mM glutamate 1 h, 10 μM Memantine or 15 μM MK801)	effect on PP-2A activity in control (untreated) slices (PP-2A [1]; no OA)	effect on MAP kinase activity (MAPK)	inhibition (decrease) of PP-2A activity (PP-2A [1]; 100 nM OA, 24 h) [%]	inhibition (decrease) of PP-2A activity (PP-2A [1]; 1000 nM (1 μM) OA, 48 h, 1 µM) [%]	inhibition at 0.1 µM (PP-2A [1]; read-out: inhibition (decrease) of PP-2A activity, 100 nM OA, 24 h) [%]	inhibition at 1 µM (PP-2A [1]; read-out: inhibition (decrease) of PP-2A activity, 1000 nM (1 μM) OA, 48 h) [%]	inhibition at 0.01 µM (PP-2A [1]; read-out: inhibition of PP-2A activity, 10 nM OA, 24 h) [%]	inhibition at 1 µM (PP-2A [1]; read-out: inhibition of PP-2A activity, 1 μM OA, 24 h) [%]	inhibition of PP-1 (PP-1 [2]) [%]	maximal inhibition of PP-2A (PP-2A [3]) [%]	inhibition of PP-1 (PP-1 [4])	inhibition of PP-2A (PP-2A [5])
CC12CC3CC(C)(C1)CC(N)(C3)C2 [Memantine, 1-amino-3,5-dimethyl adamantane]	restored the OA-inhibited PP-2A activity to normal level	restored the PP-2A activity to normal level; also recorded: almost completely restored; also recorded: restored the activities of both PP-2A and CaMKII	practically completely restored; also recorded: restored the OA-induced changes in the activities of PP-2A, CaMKII and PKA to normal levels	restoration	Neither increase of Memantine from 10 μM to 30 μM nor duration of the treatment from 24 h to 48 h resulted in any significant additional effect	10	1	no effect	no significant effect	no effect										
C=C1[C@@H](O)[C@@H]2O[C@]3(CC[C@H](/C=C/[C@@H](C)[C@@H]4CC(C)=C[C@@]5(O[C@H](C[C@@](C)(O)C(=O)O)CC[C@H]5O)O4)O3)CC[C@H]2O[C@@H]1[C@@H](O)C[C@H](C)[C@H]1O[C@@]2(CCCCO2)CC[C@H]1C [OA, Okadaic Acid]											~40	~75	42	78	~20	~65	~65	~70	no detectable inhibition	complete inhibition
